According to ChEMBL document CHEMBL1201862, “PubChem BioAssay data set” (2004):
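96-well plates; 48 h exposure; 5 concentrations. Endpoints by linear interpolation between flanking doses. Not reached: highest tested concentration assigned. Here, GI50 denotes the concentration required for 50% inhibition of growth.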 Activity calls are given as the source filed them. Cut-off read from the data, not from the text of the source: active = GI50 up to about 1.1 µM and inactive = higher.

Columns and labels:
Assay in all cases: growth of human tumour cells (NCI), 48 h
U-251 = system: U-251
HT-29 = system: HT-29
OVCAR-3 = system: OVCAR-3
UACC-62 = system: UACC-62
A549 = system: A549
BT-549 = system: BT-549
NCI/ADR-RES = system: NCI/ADR-RES
OVCAR-5 = system: OVCAR-5
SF-268 = system: SF-268
SW-620 = system: SW-620
HCT-15 = system: HCT-15
HCT-116 = system: HCT-116
IGROV-1 = system: IGROV-1
T47D = system: T47D
SNB-19 = system: SNB-19
NCI-H460 = system: NCI-H460
DU-145 = system: DU-145
PC-3 = system: PC-3
A498 = system: A498
MDA-MB-435 = system: MDA-MB-435
HCC 2998 = system: HCC 2998
KM12 = system: KM12
SNB-75 = system: SNB-75
CAKI-1 = system: CAKI-1
MDA-N = system: MDA-N
SF-539 = system: SF-539
UO-31 = system: UO-31
HL-60 = system: HL-60
SK-OV-3 = system: SK-OV-3
HOP-92 = system: HOP-92
MOLT-4 = system: MOLT-4
M14 = system: M14
K562 = system: K562
NCI-H522 = system: NCI-H522
786-0 = system: 786-0
SK-MEL-2 = system: SK-MEL-2
HOP-62 = system: HOP-62
ACHN = system: ACHN
SN12C = system: SN12C
COLO 205 = system: COLO 205
UACC-257 = system: UACC-257
OVCAR-8 = system: OVCAR-8
NCI-H226 = system: NCI-H226
SF-295 = system: SF-295
MDA-MB-231 = system: MDA-MB-231
LOX IMVI = system: LOX IMVI
EKVX = system: EKVX
RPMI-8226 = system: RPMI-8226
Hs-578T = system: Hs-578T
SR = system: SR
SK-MEL-28 = system: SK-MEL-28
MCF7 = system: MCF7
TK-10 = system: TK-10
OVCAR-4 = system: OVCAR-4
SK-MEL-5 = system: SK-MEL-5
CCRF-CEM = system: CCRF-CEM
RXF 393 = system: RXF 393
Malme-3M = system: Malme-3M
NCI-H23 = system: NCI-H23

For `COC1OC(=O)C(OC)C(OC)C1OC` (stereo unspecified), the GI50 (U-251) was > 100 µM (inactive), the GI50 (HT-29) was > 100 µM (inactive) and the GI50 (OVCAR-3) was > 100 µM (inactive). For the same compound, the GI50 (UACC-62) was > 100 µM (inactive), the GI50 (A549) was > 100 µM (inactive) and the GI50 (BT-549) was 40.5 µM (inactive). The GI50 (NCI/ADR-RES) was > 100 µM (inactive), the GI50 (OVCAR-5) was > 100 µM (inactive) and the GI50 (SF-268) was > 100 µM (inactive). For the same compound, the GI50 (SW-620) was > 100 µM (inactive), the GI50 (HCT-15) was greater than 100 µM and the GI50 (HCT-116) was > 100 µM (inactive). The GI50 (IGROV-1) was > 100 µM (inactive), the GI50 (T47D) was > 100 µM (inactive) and the GI50 (SNB-19) was > 100 µM (inactive). For the same compound, the GI50 (NCI-H460) was > 100 µM (inactive), the GI50 (DU-145) was > 100 µM (inactive) and the GI50 (PC-3) was > 100 µM (inactive). The GI50 (A498) was > 100 µM (inactive), the GI50 (MDA-MB-435) was > 100 µM (inactive) and the GI50 (HCC 2998) was > 100 µM (inactive). The GI50 (KM12) was > 100 µM (inactive), the GI50 (SNB-75) was > 100 µM (inactive) and the GI50 (CAKI-1) was > 100 µM (inactive). For the same compound, the GI50 (MDA-N) was > 100 µM (inactive), the GI50 (SF-539) was > 100 µM (inactive) and the GI50 (UO-31) was > 100 µM (inactive). The GI50 (HL-60) was > 100 µM (inactive), the GI50 (SK-OV-3) was > 100 µM (inactive) and the GI50 (HOP-92) was > 100 µM (inactive). The GI50 (MOLT-4) was > 100 µM (inactive), the GI50 (M14) was > 100 µM (inactive) and the GI50 (K562) was > 100 µM (inactive). For the same compound, the GI50 (NCI-H522) was > 100 µM (inactive), the GI50 (786-0) was > 100 µM (inactive) and the GI50 (SK-MEL-2) was > 100 µM (inactive). For the same compound, the GI50 (HOP-62) was > 100 µM (inactive), the GI50 (ACHN) was > 100 µM (inactive) and the GI50 (SN12C) was > 100 µM (inactive). For the same compound, the GI50 (COLO 205) was > 100 µM (inactive), the GI50 (UACC-257) was > 100 µM (inactive) and the GI50 (OVCAR-8) was 88.3 µM (inactive). The GI50 (NCI-H226) was > 100 µM (inactive), the GI50 (SF-295) was > 100 µM (inactive) and the GI50 (MDA-MB-231) was > 100 µM (inactive). The GI50 (LOX IMVI) was > 100 µM (inactive), the GI50 (EKVX) was > 100 µM (inactive) and the GI50 (RPMI-8226) was > 100 µM (inactive). The GI50 (Hs-578T) was > 100 µM (inactive), the GI50 (SR) was > 100 µM (inactive) and the GI50 (SK-MEL-28) was > 100 µM (inactive). The GI50 (MCF7) was > 100 µM (inactive), the GI50 (TK-10) was > 100 µM (inactive) and the GI50 (OVCAR-4) was > 100 µM (inactive). The GI50 (SK-MEL-5) was > 100 µM (inactive).

`Clc1c(Cl)c(Cl)c2nn(C3CCCO3)nc2c1Cl` (stereo unspecified) was tested, and the GI50 (U-251) was 41.4 µM (inactive), the GI50 (HT-29) was 49.1 µM (inactive) and the GI50 (OVCAR-3) was 43 µM (inactive). For the same compound, the GI50 (UACC-62) was 60.3 µM (inactive), the GI50 (A549) was 37.4 µM (inactive) and the GI50 (CCRF-CEM) was 82.2 µM (inactive). For the same compound, the GI50 (BT-549) was 26.8 µM (inactive), the GI50 (NCI/ADR-RES) was 42.8 µM (inactive) and the GI50 (RXF 393) was > 100 µM (inactive). The GI50 (OVCAR-5) was > 100 µM (inactive), the GI50 (SF-268) was 46.6 µM (inactive) and the GI50 (HCT-116) was 50.6 µM (inactive). For the same compound, the GI50 (IGROV-1) was 32.4 µM (inactive), the GI50 (T47D) was 37 µM (inactive) and the GI50 (SNB-19) was 26.7 µM (inactive). For the same compound, the GI50 (DU-145) was > 100 µM (inactive), the GI50 (PC-3) was 82 µM (inactive) and the GI50 (A498) was > 100 µM (inactive). For the same compound, the GI50 (MDA-MB-435) was 44.3 µM (inactive), the GI50 (HCC 2998) was 91 µM (inactive) and the GI50 (CAKI-1) was 80.4 µM (inactive). The GI50 (MDA-N) was 30.5 µM (inactive), the GI50 (SF-539) was 86.9 µM (inactive) and the GI50 (SK-OV-3) was > 100 µM (inactive). The GI50 (MOLT-4) was 30.5 µM (inactive), the GI50 (M14) was > 100 µM (inactive) and the GI50 (K562) was 40.7 µM (inactive). For the same compound, the GI50 (NCI-H522) was 37.3 µM (inactive), the GI50 (786-0) was 70.3 µM (inactive) and the GI50 (SK-MEL-2) was 68.1 µM (inactive). The GI50 (HOP-62) was 28.1 µM (inactive), the GI50 (SN12C) was 46.5 µM (inactive) and the GI50 (Malme-3M) was 39.4 µM (inactive). For the same compound, the GI50 (COLO 205) was 55.6 µM (inactive), the GI50 (UACC-257) was 72.6 µM (inactive) and the GI50 (OVCAR-8) was 63.5 µM (inactive). For the same compound, the GI50 (NCI-H226) was > 100 µM (inactive), the GI50 (SF-295) was 39.4 µM (inactive) and the GI50 (MDA-MB-231) was 76.7 µM (inactive). For the same compound, the GI50 (EKVX) was 19.5 µM (inactive), the GI50 (Hs-578T) was 11.7 µM (inactive) and the GI50 (SR) was 52.6 µM (inactive). The GI50 (MCF7) was 46.3 µM (inactive), the GI50 (TK-10) was 69.8 µM (inactive) and the GI50 (NCI-H23) was 37.8 µM (inactive). The GI50 (SK-MEL-5) was 25.5 µM (inactive).

For `COC1=C(OC)C(=O)C(Cc2c(Cl)nc3sc(C)cn23)=C(C)C1=O`, the GI50 (U-251) was 17.9 µM (inactive), the GI50 (HT-29) was 17.9 µM (inactive) and the GI50 (OVCAR-3) was 12.2 µM (inactive). The GI50 (UACC-62) was 11.6 µM (inactive), the GI50 (A549) was 17.2 µM (inactive) and the GI50 (CCRF-CEM) was 3.02 µM (inactive). The GI50 (BT-549) was 18 µM (inactive), the GI50 (NCI/ADR-RES) was 14.6 µM (inactive) and the GI50 (RXF 393) was 20.3 µM (inactive). For the same compound, the GI50 (OVCAR-5) was 18.2 µM (inactive), the GI50 (SF-268) was 16.6 µM (inactive) and the GI50 (SW-620) was 21.3 µM (inactive). The GI50 (HCT-15) was 24.9 µM, the GI50 (HCT-116) was 23 µM (inactive) and the GI50 (IGROV-1) was 17.8 µM (inactive). For the same compound, the GI50 (T47D) was 23.9 µM (inactive), the GI50 (SNB-19) was 17.9 µM (inactive) and the GI50 (NCI-H460) was 16.7 µM (inactive). For the same compound, the GI50 (DU-145) was 22.1 µM (inactive), the GI50 (PC-3) was 16 µM (inactive) and the GI50 (A498) was 22.9 µM (inactive). The GI50 (MDA-MB-435) was 18.2 µM (inactive), the GI50 (HCC 2998) was 17.2 µM (inactive) and the GI50 (KM12) was 13.3 µM (inactive). The GI50 (CAKI-1) was 24.5 µM (inactive), the GI50 (MDA-N) was 15.8 µM (inactive) and the GI50 (SF-539) was 19 µM (inactive). The GI50 (UO-31) was 17.1 µM (inactive), the GI50 (SK-OV-3) was 17.5 µM (inactive) and the GI50 (MOLT-4) was 1.29 µM (inactive). For the same compound, the GI50 (M14) was 17.1 µM (inactive), the GI50 (K562) was 11.9 µM (inactive) and the GI50 (NCI-H522) was 13.4 µM (inactive). For the same compound, the GI50 (786-0) was 19.9 µM (inactive), the GI50 (SK-MEL-2) was 22.3 µM (inactive) and the GI50 (HOP-62) was 19.3 µM (inactive). For the same compound, the GI50 (ACHN) was 17.1 µM (inactive), the GI50 (SN12C) was 15.9 µM (inactive) and the GI50 (Malme-3M) was 12.2 µM (inactive). The GI50 (COLO 205) was 19.6 µM (inactive), the GI50 (UACC-257) was 10.4 µM (inactive) and the GI50 (OVCAR-8) was 19.1 µM (inactive). The GI50 (SF-295) was 16.6 µM (inactive), the GI50 (MDA-MB-231) was 12.2 µM (inactive) and the GI50 (LOX IMVI) was 11.7 µM (inactive). For the same compound, the GI50 (EKVX) was 17.3 µM (inactive), the GI50 (RPMI-8226) was 11.2 µM (inactive) and the GI50 (Hs-578T) was 19.7 µM (inactive). The GI50 (SR) was 16.7 µM (inactive), the GI50 (SK-MEL-28) was 17.9 µM (inactive) and the GI50 (MCF7) was 19.5 µM (inactive). The GI50 (TK-10) was 16.4 µM (inactive), the GI50 (NCI-H23) was 13.7 µM (inactive) and the GI50 (OVCAR-4) was 7.5 µM (inactive). For the same compound, the GI50 (SK-MEL-5) was 11.2 µM (inactive).
